15 molecules from patent US20190185508A1, “DEUTERATED NUCLEOSIDE REVERSE TRANSCRIPTASE INHIBITORS” (Merck Sharp & Dohme Corp., priority 2017, published 2019) can be followed below.

The structures appear in SMILES notation.

Data set [1] concerns HIV-1 (H9IIIB virus) replication in MT4-GFP cells. Nature of the data set: Viking assay: antiviral potency in a multiple round HIV-1 infection assay. The class given is cell-based. Conditions: Human immunodeficiency virus 1; 10% normal human serum; MT4-GFP cells infected with H9IIIB virus; inhibition of reproductive ratio R0; read-out: Viking, IC50 (10%NHS). The method, then:
Assessing antiviral potency in a multiple round HIV-1 infection assay. HIV-1 replication was monitored using MT4-gag-GFP clone D3 (hereafter designate MT4-GFP), which are MT-4 cells modified to harbor a GFP reporter gene, the expression of which is dependent on the HIV-1 expressed proteins tat and rev. Productive infection of an MT4-GFP cell with HIV-1 results in GFP expression approximately 24 h post-infection.
MT4-GFP cells were maintained at 37° C./5% CO2/90% relative humidity in RPMI 1640 supplemented with 10% fetal bovine serum, 100 U/mL penicillin/streptomycin, and 400 μg/mL G418 to maintain the reporter gene. For infections, MT4-GFP cells were placed in the same medium lacking G418 and infected overnight with H9IIIB virus at an approximate multiplicity of infection of 0.01 in the same incubation conditions. Cells were then washed and re-suspended in either RPMI 1640 containing 10% or 50% normal human serum at 1.6×10^5 cells/mL. Compound plates were prepared by dispensing compounds dissolved in DMSO into wells of 384 well poly D lysine-coated plates (0.2 μl/well) using an ECHO acoustic dispenser. Each compound was tested in a 10 point serial 3-fold dilution (typical final concentrations: 8.4 μM-0.43 nM). Controls included no inhibitor (DMSO only) and a combination of three antiviral agents (efavirenz, indinavir, and an integrase strand transfer inhibitor at final concentrations of 4 μM each). Cells were added (50 μL/well) to compound plates and the infected cells were maintained at 37° C./5% CO2/90% relative humidity.
Infected cells were quantified at two time points, ˜48 h and ˜72 h post-infection, by counting the number of green cells in each well using an Acumen eX3 scanner. The increase in the number of green cells over ˜24 h period gives the reproductive ratio, R0, which is typically 5-15 and has been shown experimentally to be in logarithmic phase (data not shown). Inhibition of R0 is calculated for each well, and IC50s determined by non-linear 4-parameter curve fitting.

Data set [2] can be described thus: CTG assay: cytotoxicity in CellTiter-Glo Luminescent Cell Viability Assay. The format is cell-based. Conditions: MT4-GFP cells, 10% normal human serum, 48 h incubation. The method, then: Assessing Cytotoxicity in CellTiter-Glo Luminescent Cell Viability Assay (CTG).
MT4-GFP cells were seeded in RPMI 1640 supplemented with 10% fetal bovine serum, 100 U/mL penicillin/streptomycin overnight at 37° C./5% CO2/90% relative humidity. Cells were then washed and resuspended in RPMI 1640 containing 10% normal human serum at a density of 0.8×10^5 cells/mL. Compound plates were prepared by dispensing compounds dissolved in DMSO into wells of 384 well solid black plates (Corning 3571) using an ECHO acoustic dispenser (0.2 μl/well). […] Controls included DMSO. Cells were added (50 μL/well) to compound plates and were maintained at 37° C./5% CO2/90% relative humidity. CTG reagent (Promega, G7573) was added to the cell plates after 48 h incubation according to the manufacturer's description. Luminescence signals were recorded on EnVision plate reader (PerkinElmer). CC50s were determined by non-linear 4-parameter curve fitting. The resulting data is shown in Table 3 with the marketed HIV nucleoside reverse transcriptase inhibitor AZT (azidothymidine, zidovudine) included as a control.
A general note: In ATP-based viability assays light output follows the ATP content of the culture.

For the molecule `Cc1cn([C@H]2C[C@H](N=[N+]=[N-])[C@@H](CO)O2)c(=O)[nH]c1=O` [AZT, 3′-azido-3′-deoxythymidine, reference compound], the 50% inhibitory concentration (IC50) (in general, the midpoint of a concentration-inhibition curve) in data set [1] amounted to 37 nM. Also, in data set [2], the 50% cytotoxic concentration (CC50) – broadly, the concentration at which the toxic effect on the cells reaches its halfway point – at 48 h was above 8400 nM.
Taken in the same sequence, the figures for `[2H][C@@]1(O)C[C@H](n2cc(F)c3c(N)ncnc32)O[C@]1(C#C)CO` [Example 1] were 2310 nM and above 42000 nM.
Regarding `[2H][C@]1(O)C[C@H](n2cc(F)c3c(N)ncnc32)O[C@]1(C#C)CO` [Example 2, (2R,3S,5R)-5-{4-amino-5-fluoro-7H-pyrrolo[2,3-d]pyrimidin-7-yl}-2-ethynyl-2-(hydroxymethyl)(3-^2H)oxolan-3-ol], in data set [1], the IC50 came to 3.1 nM. The molecule also displayed a cytotoxic concentration (CC50) at 48 h in data set [2] of 31900 nM.
In the case of `[2H][C@]1(O)C[C@H](n2cnc3c(N)nc(F)nc32)O[C@]1(C#C)CO` [Example 3, (2R,3S,5R)-5-(6-amino-2-fluoro-9H-purin-9-yl)-2-ethynyl-2-(hydroxymethyl)(3-^2H)oxolan-3-ol], the IC50 in data set [1] is 1.2 nM. This molecule also yielded a half-maximal cytotoxic concentration (CC50) at 48 h in data set [2] above 42000 nM.
Taken in the same sequence, the figures for `[2H][C@@]1(O)C[C@H](n2cnc3c(N)nc(F)nc32)O[C@]1(C#C)CO` [Example 4, (2R,3R,5R)-5-(6-amino-2-fluoro-9H-purin-9-yl)-2-ethynyl-2-(hydroxymethyl)(3-^2H)oxolan-3-ol] were 1190 nM and above 42000 nM.
Taken in the same sequence, the figures for `[2H][C@@]1(O)C[C@H](n2ccc3c(N)nc(Cl)nc32)O[C@]1(C#C)CO` [Example 5, (2R,3R,5R)-5-(4-amino-2-chloro-7H-pyrrolo[2,3-d]pyrimidin-7-yl)-2-ethynyl(3-^2H)-2-(hydroxymethyl)-tetrahydrofuran-3-ol] were above 42000 nM and above 42000 nM.
In the same order, the values of `[2H][C@]1(O)C[C@H](n2ccc3c(N)nc(Cl)nc32)O[C@]1(C#C)CO` [Example 6, (2R,3S,5R)-5-(4-amino-2-chloro-7H-pyrrolo[2,3-d]pyrimidin-7-yl)-2-ethynyl(3-^2H)-2-(hydroxymethyl)-tetrahydrofuran-3-ol] are 10.6 nM and above 42000 nM.
For `[2H]C(O)[C@@]1(C#C)O[C@@H](n2cnc3c(N)nc(F)nc32)C[C@@H]1O` (stereo partly drawn) [Example 7, [(2R,3S,5R)-5-(6-amino-2-fluoro-9H-purin-9-yl)-3-oxhydryl-2-ethynyloxolan-2-yl](^2H)-methanol], the IC50 in data set [1] came out at 0.7 nM. In data set [2], this molecule gave a half-maximal cytotoxic concentration (CC50) at 48 h above 42000 nM.
Taken in the same sequence, the figures for `[2H]C([2H])(O)[C@@]1(C#C)O[C@@H](n2cnc3c(N)nc(F)nc32)C[C@@H]1O` [Example 8, [(2R,3S,5R)-5-(6-amino-2-fluoro-9H-purin-9-yl)-3-oxhydryl-2-ethynyloxolan-2-yl](^2H2)methanol] were 1.1 nM and above 42000 nM.
In the same order, the values of `[2H]C#C[C@]1(CO)O[C@@H](n2cnc3c(N)nc(F)nc32)C[C@@H]1O` [Example 9, (2R,3S,5R)-5-(6-amino-2-fluoro-9H-purin-9-yl)-2-(^2H)ethynyl-2-(hydroxymethyl)oxolan-3-ol] are 0.6 nM and above 42000 nM.
Taken in the same sequence, the figures for `[2H]C(O)[C@@]1(C#C)O[C@@H](n2ccc3c(N)nc(Cl)nc32)C[C@@H]1O` (stereo partly drawn) [Example 10, (2R,3S,5R)-5-{4-amino-2-chloro-7H-pyrrolo[2,3-d]pyrimidin-7-yl}-2-ethynyl-2-[hydroxy(^2H)methyl]oxolan-3-ol] were 5.5 nM and above 42000 nM.
For `[2H]C([2H])(O)[C@@]1(C#C)O[C@@H](n2ccc3c(N)nc(Cl)nc32)C[C@@H]1O` [Example 11, (2R,3S,5R)-5-{4-amino-2-chloro-7H-pyrrolo[2,3-d]pyrimidin-7-yl}-2-ethynyl-2-[hydroxy(^2H2)methyl]oxolan-3-ol], the 50% inhibitory concentration (IC50) in data set [1] was found to be 5.6 nM. This molecule came in with a CC50 at 48 h in data set [2] above 42000 nM.
In the same order, the values of `[2H]C#C[C@]1(CO)O[C@@H](n2ccc3c(N)nc(Cl)nc32)C[C@@H]1O` [Example 12, (2R,3S,5R)-5-{4-amino-2-chloro-7H-pyrrolo[2,3-d]pyrimidin-7-yl}-2-(^2H)ethynyl-2-(hydroxymethyl)oxolan-3-ol] are 4.6 nM and above 42000 nM.
As for `[2H][C@]1(n2cnc3c(N)nc(F)nc32)C[C@H](O)[C@@](C#C)(CO)O1` [Example 13, (2R,3S,5R)-5-(6-amino-2-fluoro-9H-purin-9-yl)-2-ethynyl-2-(hydroxymethyl)tetrahydrofuran-5-^2H-3-ol], in data set [1], the IC50 worked out at 0.2 nM. The same molecule had a CC50 at 48 h in data set [2] above 42000 nM.
`[2H][C@]1(n2ccc3c(N)nc(Cl)nc32)C[C@H](O)[C@@](C#C)(CO)O1` [Example 14, (2R,3S,5R)-5-(4-amino-2-chloro-7H-pyrrolo[2,3-d]pyrimidin-7-yl)-2-ethynyl-2-(hydroxymethyl)tetrahydrofuran-5-^2H-3-ol]: the IC50 in data set [1] was 0.3 nM. In addition, the CC50 at 48 h in data set [2] was above 42000 nM.
